According to patent publication US20030104079A1, “Skin tissue regeneration promoters comprising ginsenoside Rb1” (Japan Science and Technology Corporation, Japan, priority 2000, published 2003):

Experiments:
open wound of skin = assay: Open wound (skin defect) healing by intravenous infusion after punch biopsy; format: in vivo, Wistar rats; conditions: vs physiological saline
Protocol: We have examined whether intravenous administration of ginsenoside Rb1 at low dosages or low doses can promote regeneration and/or reconstruction of skin tissue in diseases with defect of skin tissue (bedsore, skin ulcer, burn, frostbite, radiation injury, open wound, ultraviolet injury, electric injury, etc.). For that purpose, for example, by using male Wistar rats (body weight about 300 g), punch biopsy with diameter 6 mm was performed in the dorsal skin region of animals under inhalation anesthesia to prepare open wound, and the animals were allowed to leave as they were. About 1 hour later, ginsenoside Rb1 (12 μg) dissolved in physiological saline was once administered intravenously, then ginsenoside Rb1 was continuously infused intravenously for 7 days by using an Alza osmotic minipump (12 μg/day).
An equal amount of physiological saline was administered intravenously in the control animals, for which the same open wound was made to leave the animals as they were.
On day 2 after finishing continuous intravenous administration of ginsenoside Rb1 or physiological saline, the animals were anesthetized with pentobarbital and fixed transcardialy with perfusion of 0.1 M phosphate buffer containing 4% paraformaldehyde. Thereafter, the skin tissue including the open wound was dissected out, post-fixed and embedded in paraffin. […]

[1] = intraperitoneally administered; Kaku et al. 1975; cited from earlier work
incised wound of skin = assay: Incised wound healing by intravenous infusion; format: in vivo, Wistar rats; conditions: vs physiological saline
Protocol: In order to investigate the effects of low dosages, low doses or low concentrations of ginsenoside Rb1 on regeneration and/or reconstruction of skin tissue, the effect(s) of continuous intravenous infusion of ginsenoside Rb1 on incised wound of skin which enabled us to observe easily regeneration phenomena of tissues or cells was examined. Male, Wistar rats (body weight about 300 g) were used. The animals were bred in a room with a 12:12 hour light-dark cycle, and water and feed were supplied ad libitum. Incised wound with length about 3 cm was made in the dorsal region of animals under inhalation anesthesia, and sutured with nylon thread. One hour later, ginsenoside Rb1 (60 μg) dissolved in physiological saline was once intravenously injected. Thereafter continuous intravenous infusion of ginsenoside Rb1 (60 μg/day) was performed for 7 days by using an Alza osmotic minipump.
An equal amount of physiological saline was administered intravenously in the control animals, for which the same […] was made and sutured with nylon thread.
On day 2 after finishing continuous intravenous administration of ginsenoside Rb1 or physiological saline, the animals were anesthetized with pentobarbital and perfused transcardially with 0.1 M phosphate buffer containing 4% paraformaldehyde. […]

[2] = test system: permanent occlusion of the cortical branch of the middle cerebral artery; conditions: infused into the cerebroventricles of cerebral infarcted rats; cited from earlier work
[3] = test system: cultured nerve cells (neurons); conditions: same SNP culture system, Japanese Patent Appln. No. Hei 10-365560; cited from earlier work
skin fibroblast = conditions: extracellular concentration 10 μg/ml; cited from earlier work

CC(C)=CCC[C@](C)(O[C@@H]1O[C@H](CO[C@@H]2O[C@H](CO)[C@@H](O)[C@H](O)[C@H]2O)[C@@H](O)[C@H](O)[C@H]1O)[C@H]1CC[C@]2(C)[C@@H]1[C@H](O)C[C@@H]1[C@@]3(C)CC[C@H](O[C@@H]4O[C@H](CO)[C@@H](O)[C@H](O)[C@H]4O[C@@H]4O[C@H](CO)[C@@H](O)[C@H](O)[C@H]4O)C(C)(C)[C@@H]3CC[C@]12C [ginsenoside Rb1]
scar or granulation formation in open wound (HE histology, FIG. 2) (open wound of skin; 12 μg once then 12 μg/day continuous iv for 7 days after 6 mm punch biopsy): scar or granulation formation was obviously little | epithelization of open wound (FIG. 2) (open wound of skin; 12 μg/day continuous iv for 7 days after 6 mm punch biopsy): sufficient epithelization occurred | LD50 [1]: 1110 mg/kg | scar or granulation formation in incised wound (HE histology, FIG. 1) (incised wound of skin; 60 μg/day continuous iv for 7 days after one iv infusion, two days after end of infusion): scar or granulation formation was obviously little | regeneration and reconstruction of epidermis, dermis and subcutaneous tissue after incised wound (incised wound of skin; 60 μg/day continuous iv for 7 days): regenerated, reconstructed or recovered to the nearly normal condition | cerebral infarction and place navigation disability [2]: cerebral infarction-reducting effect and place navigation disability-improving effect were observed | extracellular fluid concentration that inhibits apoptosis or apoptosis-like cell death of nerve cells [3]: ≤ 1 ng/mL | production of elastin (skin fibroblast): can promote production of elastin in the skin fibroblast
